Literature values, collected in article PMC3906704 (Journal of molecular biochemistry, 2012).

Settings: substitution of Gly6 in GnRH-I; ref Karten & Rivier 1986

Which “Potency relative to native GnRH-I” value does the source give for “L-Ala^6: GnRH analog with L-Ala^6 substitution (QHWSYALRPG; Gonadoliberin-1; UniProt P01148 24-33, looked up, variant G6A)” here?
Its value is 4%.
